# Patent publication US9187467B2, “2-phenyl benzothiazole linked imidazole compounds as potential anticancer agents and process for the preparation thereof” (Council of Scientific and Industrial Research, priority 2012, dated 2015)
# Where two headings read alike, the source gives them in different places.
# Legend:
# Type in all cases: cell-based, human
# HCT-116 = test: SRB anticancer assay, colon; settings: Homo sapiens, HCT-116, 48 h
# K-562 = test: SRB anticancer assay, leukemia; parameters: Log10GI50: unit not given here
# OVCAR-3 = test: SRB anticancer assay, ovarian; parameters: Log10GI50: unit not given here
# [1] = system: Prostate cancer cell lines; test: SRB anticancer assay, panel result
# Experimental: (§1) The compounds were evaluated for anticancer activity against sixty human cancer cells derived from nine cancer types (leukemia cell line, non-small-cell lung cell line, colon cell line, CNS cell line, melanoma cell line, ovarian cell line, prostate cell line, renal cancer cell line and breast cancer cell line) as shown in Table 1. For each compound, dose response curves for each cell line were measured at a minimum of five concentrations at 10 fold dilutions. A protocol of 48 h continuous drug exposure was used and a sulforhodamine B (SRB) protein assay was used to estimate cell viability or growth.
# [2] = system: Non-small cell lung cancer cell lines; test: SRB anticancer assay, panel result
# Experimental: as §1
# Breast cancer cell lines = test: SRB anticancer assay, panel result
# Experimental: as §1
# Renal cancer cell lines = test: SRB anticancer assay, panel result
# Experimental: as §1
# [3] = system: Leukemia cancer cell lines; test: SRB anticancer assay, panel result
# Experimental: as §1
# [4] = system: Ovarian cancer cell lines; test: SRB anticancer assay, panel result
# Experimental: as §1
# [5] = system: Melanoma cancer cell lines; test: SRB anticancer assay, panel result
# Experimental: as §1
# Colon cancer cell lines = test: SRB anticancer assay, panel result
# Experimental: as §1
# CNS cancer cell lines = test: SRB anticancer assay, panel result
# Experimental: as §1
# SK-MEL-5 = test: SRB anticancer assay, melanoma; settings: Homo sapiens, SK-MEL-5, 48 h
# SF-295 = test: SRB anticancer assay, CNS; parameters: Log10GI50: unit not given here
# MALME-3M = test: SRB anticancer assay, melanoma; parameters: Log10GI50: unit not given here
# KM12 = test: SRB anticancer assay, colon; settings: Homo sapiens, KM12, 48 h
# A549/ATCC = test: SRB anticancer assay, non-small lung; parameters: Log10GI50: unit not given here
# HS 578T = test: SRB anticancer assay, breast; settings: Homo sapiens, 48 h
# UACC-257 = test: SRB anticancer assay, melanoma
# MDA-MB-231/ATCC = test: SRB anticancer assay, breast; parameters: Log10GI50: unit not given here; settings: for GI50: 48 h
# TK-10 = test: SRB anticancer assay, renal; settings: Homo sapiens, TK-10, 48 h
# SNB-75 = test: SRB anticancer assay, CNS; parameters: Log10GI50: unit not given here
# HT29 = test: SRB anticancer assay, colon; settings: Homo sapiens, HT-29; HT29, 48 h
# OVCAR-4 = test: SRB anticancer assay, ovarian; settings: Homo sapiens, OVCAR-4, 48 h
# NCI/ADR-RES = test: SRB anticancer assay, ovarian; parameters: Log10GI50: unit not given here; settings: for Log10GI50: present compounds
structure (smiles),measurement,setting,value
"COc1cc(-c2cncn2-c2ccc(-c3nc4ccc(F)cc4s3)cc2)ccc1F [Compound 4c, 6-Fluoro-2-(4-(5-(4-fluoro-3-methoxyphenyl)-1H-imidazol-1-yl)phenyl)benzo[d]thiazole]",GI50,HCT-116,4.36 µM
same,GI50,"K-562; Homo sapiens, K562, K-562, 48 h",3.93 µM
same,Log10GI50,"K-562; K-562, present compounds",−5.41
same,GI50,"OVCAR-3; Homo sapiens, OVCAR-3, 48 h",5.71 µM
same,Log10GI50,"OVCAR-3; OVCAR-3, present compounds",−5.24
same,LC50,"[1]; Homo sapiens, Prostate panel, 50% net cell death, read-out: mean graph midpoint value (MG_MID) of Log10 LC50 (converted)",> 100 µM
same,GI50,"[1]; Homo sapiens, two prostate cancer cell lines (PC-3, DU-145), exposure at least 48 h, read-out: GI50, range over the panel",3.47 to 14.3 µM
same,mean graph midpoint value (MG_MID) of Log10 GI50,[1]; Prostate panel,−5.16 mol/L
same,mean graph midpoint value (MG_MID) of log10 TGI,"[1]; Prostate panel, total inhibition of net cell growth",−4.06
same,LC50,"[2]; Homo sapiens, Non-small cell lung panel, 50% net cell death, read-out: mean graph midpoint value (MG_MID) of Log10 LC50 (converted)",93.3 µM
same,GI50,"[2]; Homo sapiens, nine Non-small cell lung cancer cell lines, exposure at least 48 h, read-out: GI50, range over the panel",5.47 to 49.3 µM
same,mean graph midpoint value (MG_MID) of Log10 GI50,[2]; Non-small cell lung panel,−4.83 log10(M)
same,mean graph midpoint value (MG_MID) of Log10 GI50,Breast cancer cell lines; Breast panel,−4.82 mol/L
same,mean graph midpoint value (MG_MID) of log10 TGI,"Breast cancer cell lines; Breast panel, total inhibition of net cell growth",−4.02
same,CC50,"Breast cancer cell lines; Homo sapiens, Breast panel, 50% net cell death, read-out: mean graph midpoint value (MG_MID) of Log10 LC50 (converted)",> 100 µM
same,GI50,"Breast cancer cell lines; Homo sapiens, six breast cancer cell lines, exposure at least 48 h, read-out: GI50, range over the panel",7.98 to 32.2 µM
same,CC50,"Renal cancer cell lines; Homo sapiens, Renal panel, 50% net cell death, read-out: mean graph midpoint value (MG_MID) of Log10 LC50 (converted)",95.5 µM
same,GI50,"Renal cancer cell lines; Homo sapiens, eight renal cancer cell lines, exposure at least 48 h, read-out: GI50, range over the panel",0.0432 to 38.8 µM
same,mean graph midpoint value (MG_MID) of Log10 GI50,Renal cancer cell lines; Renal panel,−4.98 log10(mol/L)
same,mean graph midpoint value (MG_MID) of log10 TGI,"Renal cancer cell lines; Renal panel, total inhibition of net cell growth",−4.11
same,LC50,"[3]; Homo sapiens, Leukemia panel, 50% net cell death, read-out: mean graph midpoint value (MG_MID) of Log10 LC50 (converted)",> 100 µM
same,GI50,"[3]; Homo sapiens, six leukemia cancer cell lines, exposure at least 48 h, read-out: GI50, range over the panel",2.5 to 6.92 µM
same,mean graph midpoint value (MG_MID) of Log10 GI50,[3]; Leukemia panel,−5.38 log10(mol/L)
same,mean graph midpoint value (MG_MID) of log10 TGI,"[3]; Leukemia panel, total inhibition of net cell growth",−4.19
same,LC50,"[4]; Homo sapiens, Ovarian panel, 50% net cell death, read-out: mean graph midpoint value (MG_MID) of Log10 LC50 (converted)",> 100 µM
same,GI50,"[4]; Homo sapiens, seven ovarian cancer cell lines, exposure at least 48 h, read-out: GI50, range over the panel",5.71 to 30.6 µM
same,mean graph midpoint value (MG_MID) of Log10 GI50,[4]; Ovarian panel,−4.62 mol/L
same,mean graph midpoint value (MG_MID) of log10 TGI,"[4]; Ovarian panel, total inhibition of net cell growth",−4.11
same,LC50,"[5]; Homo sapiens, Melanoma panel, 50% net cell death, read-out: mean graph midpoint value (MG_MID) of Log10 LC50 (converted)",> 100 µM
same,GI50,"[5]; Homo sapiens, nine melanoma cancer cell lines, exposure at least 48 h, read-out: GI50, range over the panel",4.11 to 39.7 µM
same,mean graph midpoint value (MG_MID) of Log10 GI50,[5]; Melanoma panel,−4.82 log10(mol/L)
same,mean graph midpoint value (MG_MID) of log10 TGI,"[5]; Melanoma panel, total inhibition of net cell growth",>−4.0
same,mean graph midpoint value (MG_MID) of Log10 GI50,Colon cancer cell lines; Colon panel,−4.71 log10(mol/L)
same,mean graph midpoint value (MG_MID) of log10 TGI,"Colon cancer cell lines; Colon panel, total inhibition of net cell growth",−4.06
same,LC50,"Colon cancer cell lines; Homo sapiens, Colon panel, 50% net cell death, read-out: mean graph midpoint value (MG_MID) of Log10 LC50 (converted)",> 100 µM
same,GI50,"Colon cancer cell lines; Homo sapiens, seven colon cancer cell lines, exposure at least 48 h, read-out: GI50, range over the panel",4.36 to 82.3 µM
same,mean graph midpoint value (MG_MID) of Log10 GI50,CNS cancer cell lines; CNS panel,−4.52 mol/L
same,mean graph midpoint value (MG_MID) of log10 TGI,"CNS cancer cell lines; CNS panel, total inhibition of net cell growth",−4.05
same,CC50,"CNS cancer cell lines; Homo sapiens, CNS panel, 50% net cell death, read-out: mean graph midpoint value (MG_MID) of Log10 LC50 (converted)",> 100 µM
same,GI50,"CNS cancer cell lines; Homo sapiens, six CNS cancer cell lines, exposure at least 48 h, read-out: GI50, range over the panel",12.6 to 75.9 µM
same,GI50,SK-MEL-5,12.1 µM
same,GI50,"SF-295; Homo sapiens, SF-295, 48 h",75.9 µM
same,Log10GI50,"SF-295; SF-295, present compounds",−4.90
same,GI50,"MALME-3M; Homo sapiens, Malme-3M, 48 h",11.1 µM
same,Log10GI50,"MALME-3M; MALME-3M, present compounds",−4.95
same,GI50,KM12,6.4 µM
same,GI50,"A549/ATCC; Homo sapiens, 48 h",12.3 µM
same,Log10GI50,A549/ATCC; present compounds,−4.91
same,GI50,HS 578T,11.5 µM
same,GI50,"UACC-257; Homo sapiens, UACC-257, 48 h",4.11 µM
same,Log10GI50,"UACC-257; UACC-257, present compounds",−5.39 log10(M)
same,GI50,"MDA-MB-231/ATCC; Homo sapiens, MDA-MB-231, 48 h, MDA-MB-231/ATCC (row head MDA-MB-), read-out: GI50",32.2 µM
same,Log10GI50,"MDA-MB-231/ATCC; MDA-MB-231/ATCC, present compounds",−4.49
same,GI50,MDA-MB-231/ATCC; listed as head printed 231/ATCC (second line of MDA-MB-231/ATCC),—a
same,GI50,TK-10,38.8 µM
same,GI50,"SNB-75; Homo sapiens, SNB-75, 48 h",12.6 µM
same,Log10GI50,"SNB-75; SNB-75, present compounds",−4.69
same,GI50,HT29,10.8 µM
same,GI50,OVCAR-4,11.4 µM
same,GI50,"NCI/ADR-RES; Homo sapiens, NCI/ADR-RES, 48 h",30.6 µM
same,Log10GI50,NCI/ADR-RES; NCI/ADR-RES (row head NCI/ADR-),−4.51
same,Log10GI50,NCI/ADR-RES; listed as head printed RES (second line of NCI/ADR-RES),>−4.0
